Legend:
Test in all cases: Kinase panel, residual activity
Type in all cases: biochemical
Details in all cases: read-out: Percent residual activity
PKCβI(h) = PKCβI(h) (Homo sapiens, UniProt P05771)
Experimental: (§1) In this panel of 124 kinases, 18 of the 19 kinases identified as having an active site cysteine were inhibited to some extent by hypothemycin at a concentration of 0.2 μM and/or 2 μM.

TrkB(h) = TrkB(h) (Homo sapiens, UniProt Q16620)
Experimental: as §1

CSK(h) = CSK(h) (Homo sapiens, UniProt P41240)
Experimental: as §1

CHK1(h) = CHK1(h) (Homo sapiens, UniProt O14757)
Experimental: as §1

GSK3β(h) = GSK3β(h) (Homo sapiens, UniProt P49841)
Experimental: as §1

BTK(h) = BTK(h) (Homo sapiens, UniProt Q06187)
Experimental: as §1

CDK6/cyclinD3(h) = CDK6/cyclinD3(h) (Homo sapiens, UniProt Q00534)
Experimental: as §1

IR(h) = IR(h) (Homo sapiens, UniProt P06213)
Experimental: as §1

ASK1(h) = ASK1(h) (Homo sapiens, UniProt Q99683)
Experimental: as §1

FGFR3(h) = FGFR3(h) (Homo sapiens, UniProt P22607)
Experimental: as §1

Fer(h) = Fer(h) (Homo sapiens, UniProt P16591)
Experimental: as §1

EphB2(h) = EphB2(h) (Homo sapiens, UniProt P29323)
Experimental: as §1

NEK6(h) = NEK6(h) (Homo sapiens, UniProt Q9HC98)
Experimental: as §1

Flt3(h) = Flt3(h) (Homo sapiens, UniProt P36888)
Experimental: as §1

PKCγ(h) = PKCγ(h) (Homo sapiens, UniProt P05129)
Experimental: as §1

SAPK3(h) = SAPK3(h) (Homo sapiens, UniProt P53778)
Experimental: as §1

JNK1α1(h) = JNK1α1(h) (Homo sapiens, UniProt P45983)
Experimental: as §1

Plk3(h) = Plk3(h) (Homo sapiens, UniProt Q9H4B4)
Experimental: as §1

PKBα(h) = PKBα(h) (Homo sapiens, UniProt P31749)
Experimental: as §1

PKCβII(h) = PKCβII(h) (Homo sapiens, UniProt P05771)
Experimental: as §1

PDK1(h) = PDK1(h) (Homo sapiens, UniProt O15530)
Experimental: as §1

Syk(h) = Syk(h) (Homo sapiens, UniProt P43405)
Experimental: as §1

MST2(h) = MST2(h) (Homo sapiens, UniProt Q13188)
Experimental: as §1

EphA2(h) = EphA2(h) (Homo sapiens, UniProt P29317)
Experimental: as §1

CHK2(h) = CHK2(h) (Homo sapiens, UniProt O96017)
Experimental: as §1

MAPKAP-K2(h) = MAPKAP-K2(h) (Homo sapiens, UniProt P49137)
Experimental: as §1

MSK1(h) = MSK1(h) (Homo sapiens, UniProt O75582)
Experimental: as §1

MKK7β(h) = MKK7β(h) (Homo sapiens, UniProt O14733)
Experimental: as §1

PDGFRβ(h) = PDGFRβ(h) (Homo sapiens, UniProt P09619)
Experimental: as §1

Lck(h) = Lck(h) (Homo sapiens, UniProt P06239)
Experimental: as §1

Met(h) = Met(h) (Homo sapiens, UniProt P08581)
Experimental: as §1

MAPK2(h) = MAPK2(h) (Homo sapiens, UniProt P28482)
Experimental: as §1

IGF-1R(h) = IGF-1R(h) (Homo sapiens, UniProt P08069)
Experimental: as §1

Aurora-A(h) = Aurora-A(h) (Homo sapiens, UniProt O14965)
Experimental: as §1

MINK(h) = MINK(h) (Homo sapiens, UniProt Q8N4C8)
Experimental: as §1

CK1δ(h) = CK1δ(h) (Homo sapiens, UniProt P48730)
Experimental: as §1

PKA(h) = PKA(h) (Homo sapiens, UniProt P17612)
Experimental: as §1

EGFR(h) = EGFR(h) (Homo sapiens, UniProt P00533)
Experimental: as §1

Sequence of TrkB(h) (Q16620 32-822): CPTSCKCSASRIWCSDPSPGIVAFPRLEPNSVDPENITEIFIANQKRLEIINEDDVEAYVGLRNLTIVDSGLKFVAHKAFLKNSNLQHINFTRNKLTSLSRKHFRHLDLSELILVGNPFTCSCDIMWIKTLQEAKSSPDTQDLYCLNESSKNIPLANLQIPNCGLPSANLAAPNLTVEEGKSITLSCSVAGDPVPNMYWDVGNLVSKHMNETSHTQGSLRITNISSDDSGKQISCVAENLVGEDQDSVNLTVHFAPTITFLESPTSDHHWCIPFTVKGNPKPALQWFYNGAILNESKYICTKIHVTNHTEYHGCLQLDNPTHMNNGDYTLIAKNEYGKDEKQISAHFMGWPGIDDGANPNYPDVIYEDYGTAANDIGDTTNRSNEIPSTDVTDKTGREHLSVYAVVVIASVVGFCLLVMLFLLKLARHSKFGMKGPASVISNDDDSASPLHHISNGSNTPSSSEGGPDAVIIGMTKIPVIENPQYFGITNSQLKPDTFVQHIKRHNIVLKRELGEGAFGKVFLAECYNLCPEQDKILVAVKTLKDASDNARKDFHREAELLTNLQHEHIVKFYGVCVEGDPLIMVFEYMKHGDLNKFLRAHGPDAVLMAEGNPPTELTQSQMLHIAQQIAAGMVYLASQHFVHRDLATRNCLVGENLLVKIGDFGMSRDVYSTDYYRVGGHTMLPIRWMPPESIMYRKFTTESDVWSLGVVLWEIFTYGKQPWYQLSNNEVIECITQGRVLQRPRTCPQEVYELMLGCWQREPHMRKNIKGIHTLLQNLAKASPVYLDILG
Sequence of MKK7β(h) (O14733 whole entry): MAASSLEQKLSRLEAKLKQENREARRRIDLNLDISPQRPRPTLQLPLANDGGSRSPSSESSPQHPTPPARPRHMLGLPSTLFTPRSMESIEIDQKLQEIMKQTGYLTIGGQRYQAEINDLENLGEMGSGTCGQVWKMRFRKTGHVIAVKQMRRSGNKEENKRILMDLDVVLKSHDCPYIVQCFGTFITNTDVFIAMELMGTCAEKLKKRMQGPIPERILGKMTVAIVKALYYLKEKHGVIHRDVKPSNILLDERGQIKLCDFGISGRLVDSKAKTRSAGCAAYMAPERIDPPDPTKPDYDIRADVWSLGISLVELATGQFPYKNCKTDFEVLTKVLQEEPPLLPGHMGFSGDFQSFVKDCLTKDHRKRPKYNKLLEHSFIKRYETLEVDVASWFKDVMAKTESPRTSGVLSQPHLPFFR
Sequence of PDGFRβ(h) (P09619 33-1106): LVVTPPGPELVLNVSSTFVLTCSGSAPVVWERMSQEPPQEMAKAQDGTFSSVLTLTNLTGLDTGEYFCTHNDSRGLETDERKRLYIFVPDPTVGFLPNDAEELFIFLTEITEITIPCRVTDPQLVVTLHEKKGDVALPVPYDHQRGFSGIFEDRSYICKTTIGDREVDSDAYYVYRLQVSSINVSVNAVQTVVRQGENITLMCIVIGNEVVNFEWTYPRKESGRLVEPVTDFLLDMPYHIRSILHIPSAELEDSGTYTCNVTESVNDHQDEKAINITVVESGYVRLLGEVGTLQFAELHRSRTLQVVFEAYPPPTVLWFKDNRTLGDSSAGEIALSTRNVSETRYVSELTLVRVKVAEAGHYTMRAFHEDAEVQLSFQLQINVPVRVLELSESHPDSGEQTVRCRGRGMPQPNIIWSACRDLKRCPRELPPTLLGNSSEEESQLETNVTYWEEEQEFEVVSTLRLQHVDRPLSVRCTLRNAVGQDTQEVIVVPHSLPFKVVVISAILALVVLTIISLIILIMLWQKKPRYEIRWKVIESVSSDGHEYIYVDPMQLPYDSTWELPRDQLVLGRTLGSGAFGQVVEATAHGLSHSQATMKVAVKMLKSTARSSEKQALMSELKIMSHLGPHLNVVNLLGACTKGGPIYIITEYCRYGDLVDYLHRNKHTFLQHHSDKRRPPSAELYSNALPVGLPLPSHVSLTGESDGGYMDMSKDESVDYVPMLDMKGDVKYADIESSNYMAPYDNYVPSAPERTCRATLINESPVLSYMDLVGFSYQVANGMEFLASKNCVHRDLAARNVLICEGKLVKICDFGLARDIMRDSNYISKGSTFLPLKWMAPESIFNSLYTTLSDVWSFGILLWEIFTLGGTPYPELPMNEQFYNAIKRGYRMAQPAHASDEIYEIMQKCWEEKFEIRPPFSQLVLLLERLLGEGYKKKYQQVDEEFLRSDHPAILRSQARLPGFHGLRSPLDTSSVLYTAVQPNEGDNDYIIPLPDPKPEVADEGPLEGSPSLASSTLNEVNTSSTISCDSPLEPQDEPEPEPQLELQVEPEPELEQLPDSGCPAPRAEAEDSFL
Sequence of MAPK2(h) (P28482 whole entry): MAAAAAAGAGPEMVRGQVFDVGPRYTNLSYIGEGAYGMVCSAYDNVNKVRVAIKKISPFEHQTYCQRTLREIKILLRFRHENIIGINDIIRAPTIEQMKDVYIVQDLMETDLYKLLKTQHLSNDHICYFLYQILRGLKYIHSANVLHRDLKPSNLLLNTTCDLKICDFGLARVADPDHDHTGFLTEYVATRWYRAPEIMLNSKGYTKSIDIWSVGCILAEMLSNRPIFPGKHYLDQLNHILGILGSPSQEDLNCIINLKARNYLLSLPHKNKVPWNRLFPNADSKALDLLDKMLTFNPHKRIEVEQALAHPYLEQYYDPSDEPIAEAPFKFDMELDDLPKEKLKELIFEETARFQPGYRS
Sequence of GSK3β(h) (P49841 whole entry): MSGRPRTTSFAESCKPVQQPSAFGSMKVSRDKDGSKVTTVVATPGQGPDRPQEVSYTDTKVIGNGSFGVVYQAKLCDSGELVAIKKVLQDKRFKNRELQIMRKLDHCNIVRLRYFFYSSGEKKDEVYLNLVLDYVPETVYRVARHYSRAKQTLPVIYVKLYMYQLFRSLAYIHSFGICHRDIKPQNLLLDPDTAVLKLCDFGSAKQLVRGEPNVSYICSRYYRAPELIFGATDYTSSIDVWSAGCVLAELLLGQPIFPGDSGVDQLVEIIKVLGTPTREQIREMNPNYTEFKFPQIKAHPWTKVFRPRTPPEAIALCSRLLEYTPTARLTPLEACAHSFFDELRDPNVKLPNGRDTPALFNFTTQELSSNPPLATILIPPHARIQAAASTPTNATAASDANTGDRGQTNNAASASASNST
Sequence of Flt3(h) (P36888 27-993): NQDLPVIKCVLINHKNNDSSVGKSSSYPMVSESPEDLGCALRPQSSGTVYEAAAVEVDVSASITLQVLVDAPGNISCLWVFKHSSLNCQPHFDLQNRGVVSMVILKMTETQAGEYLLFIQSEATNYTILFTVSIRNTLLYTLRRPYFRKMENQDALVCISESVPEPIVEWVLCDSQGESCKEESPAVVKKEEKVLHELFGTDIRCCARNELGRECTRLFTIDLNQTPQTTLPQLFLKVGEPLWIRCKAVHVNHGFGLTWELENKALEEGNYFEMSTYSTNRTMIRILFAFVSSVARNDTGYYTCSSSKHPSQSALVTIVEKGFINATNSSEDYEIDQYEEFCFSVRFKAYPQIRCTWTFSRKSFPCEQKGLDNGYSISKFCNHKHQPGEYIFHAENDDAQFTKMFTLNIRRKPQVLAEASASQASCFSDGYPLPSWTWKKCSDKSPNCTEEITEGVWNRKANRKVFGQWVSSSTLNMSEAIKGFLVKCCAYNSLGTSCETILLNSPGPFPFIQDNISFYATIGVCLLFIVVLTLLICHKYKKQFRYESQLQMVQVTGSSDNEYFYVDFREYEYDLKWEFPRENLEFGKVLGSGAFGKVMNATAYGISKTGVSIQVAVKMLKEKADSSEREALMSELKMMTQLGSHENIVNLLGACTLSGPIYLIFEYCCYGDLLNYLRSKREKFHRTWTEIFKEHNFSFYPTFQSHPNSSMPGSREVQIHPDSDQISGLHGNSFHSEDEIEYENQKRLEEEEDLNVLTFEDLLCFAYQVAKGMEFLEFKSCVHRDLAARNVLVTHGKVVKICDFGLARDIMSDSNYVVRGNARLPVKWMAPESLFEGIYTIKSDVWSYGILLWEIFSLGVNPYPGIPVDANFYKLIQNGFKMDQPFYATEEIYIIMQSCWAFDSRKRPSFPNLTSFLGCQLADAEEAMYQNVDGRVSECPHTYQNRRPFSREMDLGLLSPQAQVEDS
Sequence of Aurora-A(h) (O14965 whole entry): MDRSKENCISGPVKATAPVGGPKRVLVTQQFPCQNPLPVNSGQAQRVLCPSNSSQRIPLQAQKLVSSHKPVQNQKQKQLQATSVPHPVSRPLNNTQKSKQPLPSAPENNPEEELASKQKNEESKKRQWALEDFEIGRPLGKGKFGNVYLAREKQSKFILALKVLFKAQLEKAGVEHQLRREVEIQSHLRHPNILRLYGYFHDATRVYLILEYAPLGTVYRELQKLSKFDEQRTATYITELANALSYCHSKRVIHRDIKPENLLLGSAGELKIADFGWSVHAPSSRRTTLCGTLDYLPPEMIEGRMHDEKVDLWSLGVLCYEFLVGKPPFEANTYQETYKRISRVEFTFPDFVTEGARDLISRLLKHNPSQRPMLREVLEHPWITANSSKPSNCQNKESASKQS
Sequence of MST2(h) (Q13188 whole entry): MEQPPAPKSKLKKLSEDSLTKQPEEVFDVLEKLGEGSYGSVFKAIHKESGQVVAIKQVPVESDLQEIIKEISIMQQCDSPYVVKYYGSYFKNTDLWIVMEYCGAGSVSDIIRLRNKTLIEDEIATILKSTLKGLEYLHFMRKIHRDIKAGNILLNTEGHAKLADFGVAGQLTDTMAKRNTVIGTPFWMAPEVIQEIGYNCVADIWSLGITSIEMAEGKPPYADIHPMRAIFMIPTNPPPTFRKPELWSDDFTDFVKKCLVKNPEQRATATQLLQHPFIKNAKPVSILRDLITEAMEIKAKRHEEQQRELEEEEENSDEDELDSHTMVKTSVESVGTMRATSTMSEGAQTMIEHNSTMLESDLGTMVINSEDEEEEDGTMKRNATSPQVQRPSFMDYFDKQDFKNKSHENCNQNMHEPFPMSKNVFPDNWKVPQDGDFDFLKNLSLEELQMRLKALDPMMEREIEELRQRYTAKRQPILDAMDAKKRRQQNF

SMILES: COc1cc(O)c2c(c1)[C@H]1O[C@@H]1C[C@H](O)[C@H](O)C(=O)/C=C\C[C@H](C)OC2=O [Hypothemycin, hypothemycin]
- remaining activity at 0.2 µM (PKCβI(h)): 99%
- remaining activity at 0.2 µM (TrkB(h); 0.2 μM): 58%
- remaining activity at 2 µM (TrkB(h); 2.0 μM): 18%
- remaining activity at 0.2 µM (CSK(h)): 104%
- remaining activity at 0.2 µM (CHK1(h)): 94%
- remaining activity at 0.2 µM (GSK3β(h); 0.2 μM): 90%
- remaining activity at 2 µM (GSK3β(h); 2.0 μM): 40%
- remaining activity at 0.2 µM (BTK(h)): 104%
- remaining activity at 0.2 µM (CDK6/cyclinD3(h)): 95%
- remaining activity at 0.2 µM (IR(h)): 100%
- remaining activity at 0.2 µM (ASK1(h)): 100%
- remaining activity at 0.2 µM (FGFR3(h)): 102%
- remaining activity at 0.2 µM (Fer(h)): 102%
- remaining activity at 0.2 µM (EphB2(h)): 118%
- remaining activity at 0.2 µM (NEK6(h)): 104%
- remaining activity at 0.2 µM (Flt3(h); 0.2 μM): 6%
- remaining activity at 2 µM (Flt3(h); 2.0 μM): 3%
- remaining activity at 0.2 µM (PKCγ(h)): 98%
- remaining activity at 0.2 µM (SAPK3(h)): 104%
- remaining activity at 0.2 µM (JNK1α1(h)): 97%
- remaining activity at 0.2 µM (Plk3(h)): 101%
- remaining activity at 0.2 µM (PKBα(h)): 153%
- remaining activity at 0.2 µM (PKCβII(h)): 97%
- remaining activity at 0.2 µM (PDK1(h)): 93%
- remaining activity at 0.2 µM (Syk(h)): 105%
- remaining activity at 0.2 µM (MST2(h)): 94%
- remaining activity at 0.2 µM (EphA2(h)): 87%
- remaining activity at 0.2 µM (CHK2(h)): 97%
- remaining activity at 0.2 µM (MAPKAP-K2(h)): 98%
- remaining activity at 0.2 µM (MSK1(h)): 87%
- remaining activity at 0.2 µM (MKK7β(h); 0.2 μM): 85%
- remaining activity at 2 µM (MKK7β(h); 2.0 μM): 41%
- remaining activity at 0.2 µM (PDGFRβ(h); 0.2 μM): 73%
- remaining activity at 2 µM (PDGFRβ(h); 2.0 μM): 40%
- remaining activity at 0.2 µM (Lck(h)): 98%
- remaining activity at 0.2 µM (Met(h)): 96%
- remaining activity at 0.2 µM (MAPK2(h); 0.2 μM): 79%
- remaining activity at 2 µM (MAPK2(h); 2.0 μM): 5%
- remaining activity at 0.2 µM (IGF-1R(h)): 107%
- remaining activity at 0.2 µM (Aurora-A(h); 0.2 μM): 87%
- remaining activity at 2 µM (Aurora-A(h); 2.0 μM): 91%
- remaining activity at 0.2 µM (MINK(h)): 88%
- remaining activity at 0.2 µM (CK1δ(h)): 105%
- remaining activity at 0.2 µM (PKA(h)): 108%
- remaining activity at 0.2 µM (EGFR(h); 0.2 μM): 106%
- remaining activity at 2 µM (EGFR(h); 2.0 μM): 94%

From US20100004234A1, “SPECIFIC KINASE INHIBITORS” (Kosan Biosciences Incorporated, priority 2004, published 2010)
